Data on five compounds can be found in patent US20030229087A1 (priority 2002, published 2003).

Holding throughout (format): in vivo
The test system of test [1] is Erysiphe graminis f.sp. hordei. In words: Erysiphe test (barley)/protective. The conditions noted are these: Blumeria graminis, 168 h, protective, application rate 12.5 g/ha, evaluation 7 days after inoculation, read-out: Efficacy in %. The protocol:
Erysiphe Test (Barley)/Protective
(§1) To produce a suitable preparation of active compound, 1 part by weight of active compound or active compound combination is mixed with the stated amounts of solvent and emulsifier, and the concentrate is diluted with water to the desired concentration.
(§2) To test for protective activity, young plants are sprayed with the preparation of active compound at the stated application rate.
After the spray coating has dried on, the plants are dusted with spores of Erysiphe graminis f.sp. hordei.
(§3) The plants are placed in a greenhouse at a temperature of approximately 20° C. and a relative atmospheric humidity of approximately 80% to promote the development of mildew postules.
(§4) Evaluation is carried out 7 days after the inoculation. 0% means an efficacy which corresponds to that of the control, whereas an efficacy of 100% means that no infection is observed.

For test [2], the system named is Erysiphe graminis f.sp. tritici. In words: Erysiphe test (wheat)/protective. The conditions noted are these: protective, application rate 6.25 g/ha, evaluation 7 days after inoculation. Here is the method: Erysiphe Test (Wheat)/Protective
as §1, §2
After the spray coating has dried on, the plants are dusted with spores of Erysiphe graminis f.sp. tritici.
as §3, §4

In test [3] the test system is Leptosphaeria nodorum. The experiment in a line: Leptosphaeria nodorum test (wheat)/protective. To be noted: protective, application rate 25 g/ha, evaluation 10 days after inoculation. The protocol:
Leptosphaeria nodorum Test (Wheat)/Protective
To produce a suitable preparation of active compound, 1 part by weight of active compound or active compound combination is mixed with the stated amounts of solvents and emulsifier, and the concentrate is diluted with water to the desired concentration.
To test for protective activity, young plants are sprayed with the preparation of active compound at the stated application rate. After the spray coating has dried on, the plants are sprayed with a spore suspension of Leptosphaeria nodorum. The plants remain in an incubation cabin at 20° C. and 100% relative atmospheric humidity for 48 hours.
The plants are placed in a greenhouse at a temperature of approximately 15° C. and a relative atmospheric humidity of 80%.
Evaluation is carried out 10 days after the inoculation. 0% means an efficacy which corresponds to that of the control, whereas an efficacy of 100% means that no infection is observed.

For test [4], the system named is Pyrenophora teres. In words: Pyrenophora teres test (barley)/protective. To be noted: protective, application rate 25 g/ha, evaluation 7 days after inoculation. The protocol:
Pyrenophora teres Test (Barley)/Protective
as §1
To test for protective activity, young plants are sprayed with the preparation of active compound at the stated application rate. After the spray coating has dried on, the plants are sprayed with a conidia suspension of Pyrenophora teres. The plants remain in an incubation cabin at 20° C. and 100% relative atmospheric humidity for 48 hours.
The plants are then placed in a greenhouse at a temperature of approximately 20° C. and a relative atmospheric humidity of approximately 80%.
as §4

Test [5] has as its system Phytophthora infestans. The experiment in a line: whole plant or invertebrate. The conditions noted are these: Phytophthora infestans, in Solanum lycopersicum, 72 h, read-out: % Efficacy.
In test [6] the test system is Sphaerotheca fuliginea. The experiment in a line: whole plant or invertebrate. The conditions noted are these: Podosphaera fuliginea, in Cucumis sativus, 240 h, read-out: % Efficacy.

Consider `CNC(=O)/C(=N/OC)c1ccccc1Oc1ncnc(Oc2cccc(Cl)c2C)c1F` [Compound of the formula (I), (2E/Z)-2-(2-{[6-(3-chloro-2-methylphenoxy)-5-fluoro-4-pyrimidinyl]oxy}phenyl)-2-(methoxyimino)-N-methylethanamide], for which, in test [1], the pest or weed control at 12.5 g/ha is 80%. The Efficacy in % is recorded as 0% in test [2], 60% in test [3] and 60% in test [4]. The pest or weed control at 0.5 g/ha was 32% in test [5] and 30% in test [6]. For the same compound, the pest or weed control at 1 g/ha in test [5] was found to be 60%; in test [6], 69%. Also, the pest or weed control at 2 g/ha in test [5] stood at 72%.

Take `CO/N=C(/C1=NOCCO1)c1ccccc1Oc1ncnc(Oc2ccccc2Cl)c1F` [Compound of the formula (LXXII) (71)]: in test [1], the pest or weed control at 12.5 g/ha is 0%. In test [3], the Efficacy in % was 40%. Besides, the pest or weed control at 2 g/ha in test [6] turned out to be 43%.

As for `Fc1ccc(C2(Cn3cncn3)OC2c2ccccc2Cl)cc1` (stereo not drawn) [epoxiconazole (XI) (10), epoxiconazole], the Efficacy in % was found to be 70% in test [2] and 60% in test [4].

As to `CC1(C)CCC(Cc2ccc(Cl)cc2)C1(O)Cn1cncn1` (stereo not drawn) [metconazole (XII) (11), metconazole], the Efficacy in % in test [2] is recorded as 50%.

Take `CC(C)(C)C(O)(CCc1ccc(Cl)cc1)Cn1cncn1` (stereo not drawn) [tebuconazole (IV) (3), tebuconazole]: the Efficacy in % amounted to 50% in test [3] and 0% in test [4]. Further, the pest or weed control at 2.5 g/ha in test [6] was 0%.
